Measured values: PubChem BioAssay (NCI)
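Compound exposure: 48 hours, 5 concentrations, 96-well plates. TGI denotes the concentration required for complete inhibition of growth.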

Columns and labels:
Assay in all cases: NCI-60 cell line screen, 48 h
RXF 393 renal = tested on: RXF 393 renal
COLO 205 colon = tested on: COLO 205 colon
SNB-19 CNS = tested on: SNB-19 CNS
KM12 colon = tested on: KM12 colon
EKVX NSCLC = tested on: EKVX NSCLC
SF-539 CNS = tested on: SF-539 CNS
HCC-2998 colon = tested on: HCC-2998 colon
SW-620 colon = tested on: SW-620 colon
UACC-257 melanoma = tested on: UACC-257 melanoma
A549 NSCLC = tested on: A549 NSCLC
SR leukemia = tested on: SR leukemia
MDA-N = tested on: MDA-N
NCI/ADR-RES ovarian = tested on: NCI/ADR-RES ovarian
UACC-62 melanoma = tested on: UACC-62 melanoma
OVCAR-5 ovarian = tested on: OVCAR-5 ovarian
OVCAR-8 ovarian = tested on: OVCAR-8 ovarian
IGROV1 ovarian = tested on: IGROV1 ovarian
MDA-MB-231 breast = tested on: MDA-MB-231 breast

Measured: TGI

CCOP(=O)(OCC)C(F)(F)Cc1cnc(C)c2c1COC(C)(C)O2
> 10 µM: all assays above

CC(C)N1[C@@H]2CCCC[C@H]2N(C(C)C)P1(=O)C(=O)/C=C/c1ccccc1
12.4 µM: A549 NSCLC
9.02 µM: UACC-62 melanoma
18.3 µM: SNB-19 CNS
3.82 µM: MDA-N
5.33 µM: HCC-2998 colon
13.5 µM: UACC-257 melanoma
10.2 µM: KM12 colon
8.74 µM: MDA-MB-231 breast
5.05 µM: COLO 205 colon
8.27 µM: SR leukemia
13.8 µM: EKVX NSCLC
6.66 µM: OVCAR-5 ovarian
4.81 µM: NCI/ADR-RES ovarian
3.46 µM: RXF 393 renal | OVCAR-8 ovarian
4.37 µM: IGROV1 ovarian
6.34 µM: SF-539 CNS

O=C(O)c1ccc(NNC(=O)c2cccc3c(=O)c4ccccc4[nH]c23)cc1
> 100 µM: all assays above

CCN(CC)CCCNc1ncc(C)c2c1c1ccc3c(O)cccc3c1n2C
14.9 µM: SF-539 CNS
4.31 µM: HCC-2998 colon
11.8 µM: OVCAR-5 ovarian
2.34 µM: A549 NSCLC
3.15 µM: KM12 colon
49.2 µM: UACC-62 melanoma
3.42 µM: MDA-MB-231 breast
9.41 µM: RXF 393 renal
3.17 µM: SNB-19 CNS
31 µM: UACC-257 melanoma
3.01 µM: MDA-N
3.5 µM: OVCAR-8 ovarian
5.97 µM: IGROV1 ovarian
1.78 µM: SR leukemia
6.87 µM: EKVX NSCLC
2.61 µM: SW-620 colon
17.5 µM: COLO 205 colon
> 100 µM: NCI/ADR-RES ovarian

COC(=O)[C@@H]1OC(C)(c2ccccc2)O[C@H]1C(=O)OC
> 100 µM: all assays above

CC(C)NC(=O)OCc1c(COC(=O)NC(C)C)c(-c2ccc[n+](COC(=O)C(C)(C)C)c2)n2c1CCC2
> 92.8 µM: RXF 393 renal
> 100 µM: all other assays above

c1cc(C[S+]2CCCC2)sc1C[S+]1CCCC1
> 100 µM: all assays above

CCOC(=O)c1ccc(N=c2oc3ccc(OC)cc3cc2-c2nc3ccccc3[nH]2)cc1
6.03 µM: SF-539 CNS
43.2 µM: OVCAR-8 ovarian
> 100 µM: all other assays above

CCO/C=C(\C(=O)OC)S(=O)(=O)c1ccc(C)cc1
> 100 µM: all assays above

COc1ccc(C(SCC(N)C(=O)O)(c2ccc(OC)cc2)c2ccc(OC)cc2)cc1 (stereo unspecified)
20.7 µM: OVCAR-5 ovarian
20.2 µM: IGROV1 ovarian
16.2 µM: KM12 colon
19.4 µM: NCI/ADR-RES ovarian
12.7 µM: MDA-N
21.9 µM: EKVX NSCLC
15.6 µM: RXF 393 renal
15.7 µM: UACC-62 melanoma
> 31.6 µM: A549 NSCLC | SR leukemia
18 µM: OVCAR-8 ovarian
17 µM: COLO 205 colon
22.6 µM: SNB-19 CNS
17.3 µM: UACC-257 melanoma
19.6 µM: MDA-MB-231 breast
17.4 µM: HCC-2998 colon
17.6 µM: SF-539 CNS

CCOC(=O)c1ccc(Nc2nc3cc(C(F)(F)F)ccc3nc2C(=O)OCC)cc1
62.2 µM: SNB-19 CNS
69.5 µM: HCC-2998 colon
> 100 µM: all other assays above

COc1cc2c(cc1OC)C(=O)/C(=C/c1ccc([N+](=O)[O-])cc1)CC2
> 10 µM: all assays above

OC(CC(O)(C(F)(F)F)C(F)(F)F)C(O)c1ccco1 (stereo unspecified)
not listed: OVCAR-5 ovarian
> 10 µM: all other assays above
